Source: US9260382B2, “Methods of reducing virulence in bacteria” (priority 2010, dated 2016)
Entries after “also recorded” stand apart in the source; their conditions may differ.

Experiments:
[1] = test system: hrpA promoter (T3SS); assay: hrpA promoter-probe phrpA in Erwinia amylovora 273, flow cytometry; type: cell-based; conditions: Ea273 (phrpA), HIM + 100 μM compound
Method: Wild-type Erwinia amylovora 273 was used in this study. The promoter-probe plasmid phrpA was constructed as follows. The hrpA promoter region of Erwinia amylovora 273 was amplified and cloned into pPROBE-NT to produce PhrpA. Plasmid PhrpA was electroporated into Erwinia amylovora 273. Expression of hrpA was analyzed using a FACS Calibur flow cytometer (BD Biosciences, CA). Wild-type Erwinia amylovora 273 containing phrpA was cultured in a hrp-inducing medium (HIM) containing dimethyl sulfoxide (DMSO; solvent of chemical compounds), or HIM supplemented with 100 μM of each compound, and promoter activity was assessed at 6 h and 9 h by measuring GFP intensity using flow cytometry (Table 19).

[2] = test system: hrpA promoter (T3SS); assay: GFP reporter plasmid phrpA, flow cytometry (FACS) of hrpA promoter activity; type: cell-based, Dickeya dadantii 3937; conditions: for mean fluorescence intensity of GFP, hrpA expression: D. dadantii 3937 (phrpA), MM + 100 μM compound; for inhibitory activity on T3SS gene (hrpA) expression, in words: D. dadantii 3937, reporter plasmid phrpA, 100 μM; for minimal effective concentration: Dickeya dadantii, read-out: minimal inhibitory concentration on hrpA expression (concentration showing inhibitory effect)
Method: FACS analysis of promoter activity of dspE, hrpA, hrpL, hrpN, and hrpS was carried out as described (Peng et al., 2006). Briefly, the wild-type Ech3937 and the mutant strains carrying the promoter reporter plasmid were grown on LB broth at 28° C. overnight and transferred to appropriate media. For FACS analysis, samples were collected by centrifugation, washed with 1× phosphate buffer saline (PBS) at 13,000 rpm for 1 min, and re-suspended in 1×PBS to ca 10^6 CFU/ml prior to being run in a FACS Calibur flow cytometer (BD Biosciences, CA). Three replicates were performed for each treatment.
To identify potential compounds that repress activation of T3SS, analogs and isomers of TCA and intermediates of salicylic acid and phenypropanoid biosynthesis pathways in plants were further screened for their effect on Ech3937 hrpA expression by flow cytometry (Table 9). A green fluorescent protein (GFP) reporter plasmid phrpA (pProbe-AT derivative with PCR fragment containing hrpA promoter region) was constructed, resulting in a transcriptional fusion of hrpA promoter with GFP gene. Bacterial cells containing phrpA plasmid were grown in MM supplemented with 0.1 mM of each compound. GFP intensity, which is a measurement of hrpA promoter activity, was measured by flow cytometry.
hrpA encodes the T3SS pilus required for protein translocation into plant cells. To test for an inhibitory effect on T3SS hrpA expression, the reporter plasmid phrpA was used to measure the effects of these compounds on hrpA expression. The reporter plasmid phrpA encodes a transcriptional fusion of the hrpA promoter controlling expression of green fluorescent protein (gfp). 50 μL of bacterial suspension of D. dadantii 3937 carrying the hrpA reporter (optical density at 600 nm OD600=1.0) was used as the initial inoculum and added to 5 mL of MM or MM supplemented with 100 μM of one of the compounds. The expression level of hrpA of these bacterial cells was measured by measuring GFP intensity of gated populations of the bacterial cells by flow cytometry and analyzed with Cell Quest software (BD Biosciences, San Jose, Calif.). The fluorescence intensities were an average GFP fluorescence intensity of total bacterial cells. Compounds were assayed two different times (12 and 24 h of bacterial growth) with T3SS minimal media (MM) as the control treatment for each set of experiment. Values presented in Table 14 are mean fluorescence intensity of GFP, representative of two experiments, presented as the average of three replicates with standard deviation (SD).

Compound	Avg MFI ± SD, hrpA expression ([1]; 6 h)	Avg MFI ± SD, hrpA expression ([1]; 9 h)	mean fluorescence intensity of GFP, hrpA expression ([2]; 12 h)	mean fluorescence intensity of GFP, hrpA expression ([2]; 24 h)	inhibitory activity on T3SS gene (hrpA) expression, in words [2]	minimal effective concentration [2] [µM]	Mean Fluorescence Intensity of GFP (hrpA, phrpA) ([2]; Trial 2, MM supplemented with compound at 100 μM)
NC/C=C/c1ccc(O)cc1 [Compound 117, para-Coumarylamine]	452.6 ± 9.5	547.9 ± 112.4	49.8 ± 1.6	73.1 ± 2.0	did not show any inhibitory activity		
O=C(O)/C=C/c1ccc(F)cc1 [Compound 110, trans-4-Fluorocinnamic acid]	279.2 ± 5.3	152.4 ± 0.7	63.4 ± 8.0	183.8 ± 19.2	inactive		
CN(C)c1ccc(/C=C/C(=O)O)cc1 [Compound 112, trans-4-Dimethylaminocinnamic acid]	87.0 ± 4.0	37.3 ± 3.7	23.8 ± 4.3	60.7 ± 6.4			
CCOP(=O)(/C=C/c1ccc(O)cc1)OCC [Compound 114, Diethyl trans-2-(4-hydroxyphenyl)-vinylphosphonate]	495.8 ± 14.2	661.2 ± 134.3	55.4 ± 1.0	76.5 ± 5.6	did not exhibit any activity		
COc1ccc(/C=C/CN2C(=O)c3ccccc3C2=O)cc1 [Compound 118, N-(4-Methoxycinnamyl)phthalimide]	361.3 ± 28.6	520.4 ± 16.2	59.0 ± 0.4	83.8 ± 1.7			
COc1ccc(/C=C/CN)cc1 [Compound 119, trans-4-Methoxycinnamylamine]	208.6 ± 18.6	232.9 ± 44.4	47.8 ± 3.2	68.2 ± 10.4	did not show any inhibitory activity		
O=C1c2ccccc2C(=O)N1C/C=C/c1ccc(O)cc1 [Compound 116, N-(para-Coumaryl)phthalimide]	889.1 ± 61.8	1466.4 ± 17.8	24.3 ± 1.5	39.3 ± 3.5	showed inhibitory effect; also recorded: moderated inhibitory activity	100	27.0 ± 2.1
O=C(O)/C=C/c1ccc(CO)cc1 [Compound 124, trans-4-Hydroxymethylcinnamic acid]	419.8 ± 12.2	444.3 ± 11.4	44.9 ± 3.5	78.1 ± 3.4	did not show any inhibitory activity		
NC(=O)/C=C/c1ccc(Cl)cc1 [Compound 109, trans-4-Chlorocinnamide]	172.9 ± 20.5	90.6 ± 12.0	35.7 ± 6.3	81.5 ± 3.8			
O=C(O)[C@@H]1C[C@H]1c1ccc(O)cc1 (relative stereo) [Compound 107, trans-2-(4-Hydroxyphenyl)-1-cyclopropanecarboxylic acid]	1464.3 ± 76.5	1348.0 ± 82.6	45.9 ± 2.7	122.1 ± 17.9	no inhibitory activity		
CCOS(=O)(=O)/C=C/c1ccc(OC)cc1 [Compound 120, Ethyl trans-2-(4-methoxyphenyl)-ethenylsulfonate]	371.5 ± 29.7	492.0 ± 37.6	49.9 ± 2.6	68.6 ± 6.0	did not exhibit any activity		
COc1ccc([C@@H]2C[C@H]2C(=O)O)cc1 (relative stereo) [Compound 105, trans-2-(4-Methoxyphenyl)-1-cyclopropanecarboxylic acid]	345.3 ± 11.9	200.2 ± 11.0	22.9 ± 2.6	82.4 ± 5.8		100	
O=C(/C=C/c1ccc(F)cc1)NO [Compound 141, trans-4-Fluorocinnamohydroxamic acid]	167.6 ± 4.7	119.0 ± 7.1					
O=C(O)CCc1ccccc1 [Compound 008, Hydrocinnamic acid]	395.9 ± 16.0	342.0 ± 11.7					
Cc1ccccc1/C=C/C(=O)NO [Compound 160, trans-2-Methylcinnamohydroxamic acid]	122.7 ± 1.9	95.7 ± 3.7					
O=Cc1ccc(/C=C/C(=O)NO)cc1 [Compound 146, trans-4-Formylcinnamohydroxamic acid]	414.3 ± 31.6	435.2 ± 36.2					
COc1ccc(/C=C/C(=O)O)cc1 [Compound 017, trans-4-Methoxycinnamic acid]	132.5 ± 5.5	76.4 ± 2.7					
O=C(O)/C=C/c1c[nH]c2ccccc12 [Compound 012, trans-3-Indoleacrylic acid]	33.7 ± 8.9	47.9 ± 6.9					
O=C(/C=C/c1ccc(-c2ccccc2)cc1)NO [Compound 140, trans-4-Phenylcinnamohydroxamic acid]	101.7 ± 17.1	82.8 ± 4.3					
O=C(NO)c1ccccc1O [Compound 135, Salicylhydroxamic acid]	124.7 ± 7.7	147.8 ± 4.3					
O=C(Cc1ccccc1)c1ccc(C2CC2C(=O)O)cc1 (stereo not drawn) [Compound 165, trans-2-[(4′-Benzylcarbonyl]phenylcyclopropane-1-carboxylic acid]	292.8 ± 17.1	229.4 ± 15.0					
O=C(O)/C=C/c1ccc(-c2ccccc2)cc1 [Compound 108, trans-4-Phenylcinnamic acid]			31.6 ± 2.5	109.0 ± 19.8	inactive		
O=C(/C=C/c1cccc(F)c1)NO [Compound 153, trans-3-Fluorocinnamohydroxamic acid]	177.1 ± 11.9	110.6 ± 3.2					
O=C(O)/C=C/c1ccc(O)cc1O [Compound 002, 2,4-Dihydroxycinnamic acid]	1365.3 ± 104.9	1479.8 ± 72.9					
O=C(O)/C=C/c1ccc(C(=O)Nc2ccccc2)cc1 [Compound 166, trans-4-(Carbo-phenylamide)cinnamic acid]	105.0 ± 53.0	221.2 ± 22.2					
O=C(/C=C/c1cccc([N+](=O)[O-])c1)NO [Compound 156, trans-3-Nitrocinnamohydroxamic acid]	67.8 ± 17.9	99.5 ± 4.9					
O=C(O)/C=C/c1ccccc1C(=O)O [Compound 024, trans-2-Carboxycinnamic acid]	361.1 ± 76.1	332.2 ± 19.6					
O=C(/C=C/c1ccc(Br)cc1)NO [Compound 128, trans-4-Bromocinnamohydroxamic acid]	17.6 ± 2.8	5.7 ± 2.2					
